# Source: patent US11684607B2, “Secnidazole for use in the treatment of bacterial vaginosis” (priority 2014, dated 2023)
# Tested on: bacterial vaginosis
# Experiment: Telephone diary questionnaire on vaginal discharge and odor (five point scale), mITT population
# Assay type: in vivo, human
# Details: for proportion of women reporting 3-5 for vaginal discharge / proportion of women reporting 3-5 for vaginal odor / proportion of women reporting 4-5 for vaginal discharge / proportion of women reporting 4-5 for vaginal odor: 2 g dose; for Discharge 1 point (Normal/Not an Issue): number of women / Discharge 1 point (Normal/Not an Issue): proportion of women / Discharge 2 points (Mildly Abnormal): number of women / Discharge 2 points (Mildly Abnormal): proportion of women / Discharge 3 points (Moderately Abnormal): number of women / Discharge 3 points (Moderately Abnormal): proportion of women / Discharge 4 points (Severely Abnormal): number of women / Discharge 4 points (Severely Abnormal): proportion of women / Discharge 5 points (Very Severely Abnormal): number of women / Discharge 5 points (Very Severely Abnormal): proportion of women / Odor 1 point (Normal/Not an Issue): number of women / Odor 1 point (Normal/Not an Issue): proportion of women / Odor 2 points (Mildly Abnormal): number of women / Odor 2 points (Mildly Abnormal): proportion of women / Odor 3 points (Moderately Abnormal): number of women / Odor 3 points (Moderately Abnormal): proportion of women / Odor 4 points (Severely Abnormal): number of women / Odor 4 points (Severely Abnormal): proportion of women / Odor 5 points (Very Severely Abnormal): number of women / Odor 5 points (Very Severely Abnormal): proportion of women: 2 g
smiles,measurement,setting,value
"Cc1ncc([N+](=O)[O-])n1CC(C)O (stereo not shown) [SYM-1219, 1-(2-hydroxypropyl)-2-methyl-5-nitromidazole]",proportion of women reporting 3-5 for vaginal discharge,day 1,59%
same,proportion of women reporting 3-5 for vaginal odor,day 1,66%
same,proportion of women reporting 4-5 for vaginal discharge,day 1,36%
same,proportion of women reporting 4-5 for vaginal odor,day 1,38%
same,proportion of women reporting 3-5 for vaginal discharge,day 3 (~48 hours),30%
same,proportion of women reporting 3-5 for vaginal odor,day 3 (~48 hours),20%
same,proportion of women reporting 4-5 for vaginal discharge,day 3 (~48 hours),11%
same,proportion of women reporting 4-5 for vaginal odor,day 3 (~48 hours),9%
same,proportion of women reporting 3-5 for vaginal discharge,day 7,14%
same,proportion of women reporting 3-5 for vaginal odor,day 7,9%
same,proportion of women reporting 4-5 for vaginal discharge,day 7,0%
same,proportion of women reporting 4-5 for vaginal odor,day 7,0%
same,Discharge 1 point (Normal/Not an Issue): number of women,Day 1,6
same,Discharge 1 point (Normal/Not an Issue): proportion of women,Day 1,10%
same,Discharge 2 points (Mildly Abnormal): number of women,Day 1,18
same,Discharge 2 points (Mildly Abnormal): proportion of women,Day 1,31%
same,Discharge 3 points (Moderately Abnormal): number of women,Day 1,13
same,Discharge 3 points (Moderately Abnormal): proportion of women,Day 1,22%
same,Discharge 4 points (Severely Abnormal): number of women,Day 1,17
same,Discharge 4 points (Severely Abnormal): proportion of women,Day 1,29%
same,Discharge 5 points (Very Severely Abnormal): number of women,Day 1,4
same,Discharge 5 points (Very Severely Abnormal): proportion of women,Day 1,7%
same,Odor 1 point (Normal/Not an Issue): number of women,Day 1,8
same,Odor 1 point (Normal/Not an Issue): proportion of women,Day 1,14%
same,Odor 2 points (Mildly Abnormal): number of women,Day 1,12
same,Odor 2 points (Mildly Abnormal): proportion of women,Day 1,21%
same,Odor 3 points (Moderately Abnormal): number of women,Day 1,16
same,Odor 3 points (Moderately Abnormal): proportion of women,Day 1,28%
same,Odor 4 points (Severely Abnormal): number of women,Day 1,17
same,Odor 4 points (Severely Abnormal): proportion of women,Day 1,29%
same,Odor 5 points (Very Severely Abnormal): number of women,Day 1,5
same,Odor 5 points (Very Severely Abnormal): proportion of women,Day 1,9%
same,Discharge 1 point (Normal/Not an Issue): number of women,Day 2,9
same,Discharge 1 point (Normal/Not an Issue): proportion of women,Day 2,17%
same,Discharge 2 points (Mildly Abnormal): number of women,Day 2,20
same,Discharge 2 points (Mildly Abnormal): proportion of women,Day 2,38%
same,Discharge 3 points (Moderately Abnormal): number of women,Day 2,15
same,Discharge 3 points (Moderately Abnormal): proportion of women,Day 2,29%
same,Discharge 4 points (Severely Abnormal): number of women,Day 2,3
same,Discharge 4 points (Severely Abnormal): proportion of women,Day 2,6%
same,Discharge 5 points (Very Severely Abnormal): number of women,Day 2,5
same,Discharge 5 points (Very Severely Abnormal): proportion of women,Day 2,10%
same,Odor 1 point (Normal/Not an Issue): number of women,Day 2,10
same,Odor 1 point (Normal/Not an Issue): proportion of women,Day 2,19%
same,Odor 2 points (Mildly Abnormal): number of women,Day 2,23
same,Odor 2 points (Mildly Abnormal): proportion of women,Day 2,44%
same,Odor 3 points (Moderately Abnormal): number of women,Day 2,10
same,Odor 3 points (Moderately Abnormal): proportion of women,Day 2,19%
same,Odor 4 points (Severely Abnormal): number of women,Day 2,8
same,Odor 4 points (Severely Abnormal): proportion of women,Day 2,15%
same,Odor 5 points (Very Severely Abnormal): number of women,Day 2,1
same,Odor 5 points (Very Severely Abnormal): proportion of women,Day 2,2%
same,Discharge 1 point (Normal/Not an Issue): number of women,Day 3,13
same,Discharge 1 point (Normal/Not an Issue): proportion of women,Day 3,24%
same,Discharge 2 points (Mildly Abnormal): number of women,Day 3,25
same,Discharge 2 points (Mildly Abnormal): proportion of women,Day 3,46%
same,Discharge 3 points (Moderately Abnormal): number of women,Day 3,10
same,Discharge 3 points (Moderately Abnormal): proportion of women,Day 3,19%
same,Discharge 4 points (Severely Abnormal): number of women,Day 3,3
same,Discharge 4 points (Severely Abnormal): proportion of women,Day 3,6%
same,Discharge 5 points (Very Severely Abnormal): number of women,Day 3,3
same,Discharge 5 points (Very Severely Abnormal): proportion of women,Day 3,6%
same,Odor 1 point (Normal/Not an Issue): number of women,Day 3,20
same,Odor 1 point (Normal/Not an Issue): proportion of women,Day 3,37%
same,Odor 2 points (Mildly Abnormal): number of women,Day 3,23
same,Odor 2 points (Mildly Abnormal): proportion of women,Day 3,43%
same,Odor 3 points (Moderately Abnormal): number of women,Day 3,6
same,Odor 3 points (Moderately Abnormal): proportion of women,Day 3,11%
same,Odor 4 points (Severely Abnormal): number of women,Day 3,4
same,Odor 4 points (Severely Abnormal): proportion of women,Day 3,7%
same,Odor 5 points (Very Severely Abnormal): number of women,Day 3,1
same,Odor 5 points (Very Severely Abnormal): proportion of women,Day 3,2%
same,Discharge 1 point (Normal/Not an Issue): number of women,Day 4,19
same,Discharge 1 point (Normal/Not an Issue): proportion of women,Day 4,35%
same,Discharge 2 points (Mildly Abnormal): number of women,Day 4,22
same,Discharge 2 points (Mildly Abnormal): proportion of women,Day 4,40%
same,Discharge 3 points (Moderately Abnormal): number of women,Day 4,8
same,Discharge 3 points (Moderately Abnormal): proportion of women,Day 4,15%
same,Discharge 4 points (Severely Abnormal): number of women,Day 4,5
same,Discharge 4 points (Severely Abnormal): proportion of women,Day 4,9%
same,Discharge 5 points (Very Severely Abnormal): number of women,Day 4,1
same,Discharge 5 points (Very Severely Abnormal): proportion of women,Day 4,2%
same,Odor 1 point (Normal/Not an Issue): number of women,Day 4,27
same,Odor 1 point (Normal/Not an Issue): proportion of women,Day 4,49%
same,Odor 2 points (Mildly Abnormal): number of women,Day 4,18
same,Odor 2 points (Mildly Abnormal): proportion of women,Day 4,33%
same,Odor 3 points (Moderately Abnormal): number of women,Day 4,6
same,Odor 3 points (Moderately Abnormal): proportion of women,Day 4,11%
same,Odor 4 points (Severely Abnormal): number of women,Day 4,4
same,Odor 4 points (Severely Abnormal): proportion of women,Day 4,7%
same,Odor 5 points (Very Severely Abnormal): number of women,Day 4,0
same,Odor 5 points (Very Severely Abnormal): proportion of women,Day 4,0%
same,Discharge 1 point (Normal/Not an Issue): number of women,Day 5,21
same,Discharge 1 point (Normal/Not an Issue): proportion of women,Day 5,43%
same,Discharge 2 points (Mildly Abnormal): number of women,Day 5,17
same,Discharge 2 points (Mildly Abnormal): proportion of women,Day 5,35%
same,Discharge 3 points (Moderately Abnormal): number of women,Day 5,4
same,Discharge 3 points (Moderately Abnormal): proportion of women,Day 5,8%
same,Discharge 4 points (Severely Abnormal): number of women,Day 5,6
same,Discharge 4 points (Severely Abnormal): proportion of women,Day 5,12%
same,Discharge 5 points (Very Severely Abnormal): number of women,Day 5,1
same,Discharge 5 points (Very Severely Abnormal): proportion of women,Day 5,2%
same,Odor 1 point (Normal/Not an Issue): number of women,Day 5,28
same,Odor 1 point (Normal/Not an Issue): proportion of women,Day 5,58%
same,Odor 2 points (Mildly Abnormal): number of women,Day 5,12
same,Odor 2 points (Mildly Abnormal): proportion of women,Day 5,25%
same,Odor 3 points (Moderately Abnormal): number of women,Day 5,5
same,Odor 3 points (Moderately Abnormal): proportion of women,Day 5,10%
same,Odor 4 points (Severely Abnormal): number of women,Day 5,3
same,Odor 4 points (Severely Abnormal): proportion of women,Day 5,6%
same,Odor 5 points (Very Severely Abnormal): number of women,Day 5,0
same,Odor 5 points (Very Severely Abnormal): proportion of women,Day 5,0%
same,Discharge 1 point (Normal/Not an Issue): number of women,Day 6,22
same,Discharge 1 point (Normal/Not an Issue): proportion of women,Day 6,47%
same,Discharge 2 points (Mildly Abnormal): number of women,Day 6,15
same,Discharge 2 points (Mildly Abnormal): proportion of women,Day 6,32%
same,Discharge 3 points (Moderately Abnormal): number of women,Day 6,7
same,Discharge 3 points (Moderately Abnormal): proportion of women,Day 6,15%
same,Discharge 4 points (Severely Abnormal): number of women,Day 6,2
same,Discharge 4 points (Severely Abnormal): proportion of women,Day 6,4%
same,Discharge 5 points (Very Severely Abnormal): number of women,Day 6,1
same,Discharge 5 points (Very Severely Abnormal): proportion of women,Day 6,2%
same,Odor 1 point (Normal/Not an Issue): number of women,Day 6,29
same,Odor 1 point (Normal/Not an Issue): proportion of women,Day 6,62%
same,Odor 2 points (Mildly Abnormal): number of women,Day 6,12
same,Odor 2 points (Mildly Abnormal): proportion of women,Day 6,26%
same,Odor 3 points (Moderately Abnormal): number of women,Day 6,5
same,Odor 3 points (Moderately Abnormal): proportion of women,Day 6,11%
same,Odor 4 points (Severely Abnormal): number of women,Day 6,1
same,Odor 4 points (Severely Abnormal): proportion of women,Day 6,2%
same,Odor 5 points (Very Severely Abnormal): number of women,Day 6,0
same,Odor 5 points (Very Severely Abnormal): proportion of women,Day 6,0%
same,Discharge 1 point (Normal/Not an Issue): number of women,Day 7,24
same,Discharge 1 point (Normal/Not an Issue): proportion of women,Day 7,55%
same,Discharge 2 points (Mildly Abnormal): number of women,Day 7,14
same,Discharge 2 points (Mildly Abnormal): proportion of women,Day 7,32%
same,Discharge 3 points (Moderately Abnormal): number of women,Day 7,6
same,Discharge 3 points (Moderately Abnormal): proportion of women,Day 7,14%
same,Discharge 4 points (Severely Abnormal): number of women,Day 7,0
same,Discharge 4 points (Severely Abnormal): proportion of women,Day 7,0%
same,Discharge 5 points (Very Severely Abnormal): number of women,Day 7,0
same,Discharge 5 points (Very Severely Abnormal): proportion of women,Day 7,0%
same,Odor 1 point (Normal/Not an Issue): number of women,Day 7,33
same,Odor 1 point (Normal/Not an Issue): proportion of women,Day 7,75%
same,Odor 2 points (Mildly Abnormal): number of women,Day 7,7
same,Odor 2 points (Mildly Abnormal): proportion of women,Day 7,16%
same,Odor 3 points (Moderately Abnormal): number of women,Day 7,4
same,Odor 3 points (Moderately Abnormal): proportion of women,Day 7,9%
same,Odor 4 points (Severely Abnormal): number of women,Day 7,0
same,Odor 4 points (Severely Abnormal): proportion of women,Day 7,0%
same,Odor 5 points (Very Severely Abnormal): number of women,Day 7,0
same,Odor 5 points (Very Severely Abnormal): proportion of women,Day 7,0%
same,Discharge 1 point (Normal/Not an Issue): number of women,EOS,36
same,Discharge 1 point (Normal/Not an Issue): proportion of women,EOS,68%
same,Discharge 2 points (Mildly Abnormal): number of women,EOS,9
same,Discharge 2 points (Mildly Abnormal): proportion of women,EOS,17%
same,Discharge 3 points (Moderately Abnormal): number of women,EOS,4
same,Discharge 3 points (Moderately Abnormal): proportion of women,EOS,8%
same,Discharge 4 points (Severely Abnormal): number of women,EOS,3
same,Discharge 4 points (Severely Abnormal): proportion of women,EOS,6%
same,Discharge 5 points (Very Severely Abnormal): number of women,EOS,1
same,Discharge 5 points (Very Severely Abnormal): proportion of women,EOS,2%
same,Odor 1 point (Normal/Not an Issue): number of women,EOS,36
same,Odor 1 point (Normal/Not an Issue): proportion of women,EOS,69%
same,Odor 2 points (Mildly Abnormal): number of women,EOS,7
same,Odor 2 points (Mildly Abnormal): proportion of women,EOS,13%
same,Odor 3 points (Moderately Abnormal): number of women,EOS,9
same,Odor 3 points (Moderately Abnormal): proportion of women,EOS,17%
same,Odor 4 points (Severely Abnormal): number of women,EOS,0
same,Odor 4 points (Severely Abnormal): proportion of women,EOS,0%
same,Odor 5 points (Very Severely Abnormal): number of women,EOS,0
same,Odor 5 points (Very Severely Abnormal): proportion of women,EOS,0%
